In patent US8455450B2, “Methods for obtaining a therapeutically effective amount of hematopoietic precursor cells and long term engraftment thereof” (Biokine Therapeutics Ltd., priority 2006, dated 2013):
Where two headings read alike, the source gives them in different places.

Key:
[1] = test system: BM cells on stromal cells (14F1.1); experiment: In vitro production of progenitors and mature cells from BM cells seeded on stromal cells (14F1.1); assay type: cell-based
Procedure: More specifically, the number of colonies was assayed by collecting the cells (10^5/plate) 4 days after treatment form the treated and control (untreated) plates, and evaluating the number of progenitor cells using a colony-forming cell assay. Burst forming units erythrocyte (BFU-E), colony forming units granulocyte-macrophage (CFU-GM), colony forming units megakaryocytes (CFU-M), and colony forming units granulocyte-erythrocyte-monocyte-macrophage (CFU-GEMM) were assayed by plating the cells in Iscove's-modified Dulbecco's Medium (IMDM) containing 1% methylcellulose, 15% FBS, 1% bovine serum albumin (BSA), 3 U/mL rh EPO, […] 2-mercaptoethanol, 2 mM L-glutamine, 50 ng/mL rmSCF, 10 ng/mL rmIL-3, […] rh Insulin, 10 ng/mL rh IL-6, and […] Human Transferrin (Methocult GF M3434; StemCell Technologies Inc.). The cultures were incubated at 37° C. in a humidified atmosphere containing 5% CO2. Seven days later, typical colonies were visually scored by morphologic criteria using a light microscope and the frequency of CFU was calculated. Staining colonies with benzidine dihydrochloride (Sigma, Israel) was used to localize hemoglobin-containing cells.

white-blood-cells (WBC) = assay type: in vivo; details: 5 mg/kg s.c. 4F-benzoyl-TN14003 or AMD3100, 2 h, G-CSF 2.5 μg s.c. twice a day for 4 days, combination 18 h after last G-CSF
[2] = test system: hematopoietic stem cells (HSCs); experiment: Hematopoietic stem cell assay: transplantation of mobilized blood cells into lethally irradiated mice, survival; assay type: in vivo, C57BL/6 mice; details: 2 h
Procedure: C57BL/6 mice, served as donors, were injected with 5 mg/kg of either 4F-benzoyl-TN14003 or AMD3100. 2 h later peripheral blood cells were collected following by ACK lysis and transferred into C57BL/6 recipient mice that were given a lethal dosing of irradiation (900 cGy) 24 h before i.v. injection of cells. A total cell obtained from 900 or 225 microliter of blood was transferred into single recipient mouse in a total volume of 200 μl PBS. Recipient mice transferred with cells obtained from blood of untreated mice or with normal BM cells were served as controls. Survival of mice was monitored for 4 months.
Although mobilization of HPCs may be of use for short-term repopulation in a transplantation setting, HSCs are required for long-term repopulation. To assess the effect of 4F-benzoyl-TN14003 on mobilization of murine HSCs, a transplantation model was used, in which donor C57Bl/6 mice were treated with 4F-benzoyl-TN14003 or AMD3100. After 2 h, blood was collected and cells isolated from an equal volume of blood obtained from each treated group (900 or 225 microliter in different experiments) were transferred for engraftment in lethally irradiated recipient C57Bl/6 mice. Survival of the recipient mice, indicative for long-term repopulating (LTR) activity and presence of HSCs, was monitored.

[3] = test system: hematopoietic progenitor cells (HPCs); experiment: Mobilization of hematopoietic progenitor cells to the blood, colony-forming cell assay; assay type: in vivo, C57BL/6 mice; details: 5 mg/kg s.c. 4F-benzoyl-TN14003 or AMD3100, 2 h, G-CSF 2.5 μg s.c. twice a day for 4 days, combination 18 h after last G-CSF
PC3-CXCR4.5 cells = experiment: MIP3α secretion by CXCR4-overexpressing PC3-CXCR4.5 cells (ELISA); assay type: cell-based
From the text: (§1) A PC3 prostate cell line that overexpresses high levels of CXCR4 was generated. […] FIG. 1A presents FACS histograms of PC3 cells (left panel) and a single cell clone with stable overexpression of CXCR4, GFP and luc genes (PC3-CXCR4.5, right panel) that were stained for the control (IgG2a-PE, full histograms) and CXCR4 (IgG2a-12G5, empty histograms) antibodies.
(§2) In this example, regulation of the chemokine MIP3α (macrophage inflammatory protein 3α) was examined. […] In FIG. 1B, PC3 (left panel) and PC3-CXCR4.5 (right panel) cells were stimulated with the indicated concentrations of CXCL12 for 48 hours and MIP3α secretion was assessed by ELISA. The results represent the average of triplicates±STDEV.
(§3) The effects of the CXCR4 antagonist AMD3100 and of 4F-benzoyl-TN14003 (4FB-TN14003), hitherto known as a CXCR4 antagonist, on MIP3α secretion were further tested. […] In FIG. 10, CXCR4 signaling in PC3 (left panel) and PC3-CXCR4.5 (right panel) cells was inhibited with anti-CXCL12 antibodies (αCXCL12) and Pertussis toxin (PTX) treatments alone or in combination with CXCL12, as indicated. Secretion of MIP3α was assessed by ELISA. The results represent the average of triplicates±STDEV.
Spontaneous secretion of MIP3α is CXCL12 and PTX independent in these cells.

PC3 cells = experiment: MIP3α secretion by PC3 prostate cells (ELISA); assay type: cell-based
From the text: as §1, §2, §3

[4] = test system: granulocytes (GR-1 positive cells); experiment: Granulocyte (GR-1 positive) counts in blood and bone marrow in a chemotherapy model; assay type: in vivo, mice; details: CPM 250 mg/kg total i.p.; 4F-benzoyl-TN14003 5 mg/kg s.c., G-CSF 5 μg/mouse
Procedure: Mice received a total dose of 250 mg/kg cyclophosphamide (CPM) by two 0.25 ml intra-peritoneal injections scheduled at day 0 (150 mg/kg) and day 3 (100 mg/kg). Mice were subcutaneously treated with 0.2 ml of 4F-benzoyl-TN14003 (5 mg/kg) at the indicated time points, as detailed in FIG. 13A. Flow cytometery was used to assess the number of cells in the blood and bone marrow (BM), and distinguish between the different populations. Cells were gated according to forward scatter and side scatter to exclude dead cells and to identify granulocytes (GR-1 positive cells).
Mice received a total dose of 250 mg/kg CPM by two 0.25 ml intra-peritoneal injections scheduled at day 0 (150 mg/kg) and day 3 (100 mg/kg). Mice were subcutaneously treated with 0.2 ml of 4F-benzoyl-TN14003 (5 mg/kg) or G-CSF 5 μg/mouse or the combination of both at the indicated time points as detailed in FIG. 14A. Flow cytometery was used to assess the number of cells in the blood and bone marrow (BM) and distinguish between the different populations. Cells were gated according to forward scatter and side scatter to exclude dead cells and to determine granulocytes (GR-1 positive cells).

neutrophils = experiment: Chemotherapy (cyclophosphamide)-induced neutropenia model, neutrophil counts; assay type: in vivo, C57BL/6 mice; details: cyclophosphamide 150 + 100 mg/kg i.p. days 1 and 4, treatment s.c. days 4-7 (4F-benzoyl-TN14003 5 mg/kg)
Procedure: In the chemotherapy-induced neutropenia model, a protocol as previously described was followed (Zuluaga et al., 2006). Briefly, Female C57BL/6 mice were injected intraperitoneally with 150 and 100 mg/kg of Cyclophosphamide (CPM) on days 1 and 4, respectively. Following the treatment with CPM, mice were injected s.c. with either G-CSF […], 4F-benzoyl-TN14003 (5 mg/kg) or their combination on day 4, 5, 6 and 7. Blood samples were drawn from each mouse on day 0 and two hours after G-CSF/4F-benzoyl-TN14003 injections on days 4, 5, 6 and 7. Lysis of the erythrocyte population in the blood samples was done using ACK lysis buffer. The number of neutrophils was determined by FACS after staining the cells with anti-PE-Gr-1 antibody.
Neutropenia was induced in female C57BL/6 mice by administration of a total dose of 250 mg/kg cyclophosphamide (CPM) in two 0.5 mL intraperitoneal injections scheduled at day 1 (150 mg/kg) and day 4 (100 mg/kg). The CPM protocol caused 4 days of neutropenia (from day 4 to day 8). When mice were treated with the combination of G-CSF and 4F-benzoyl-TN14003, a significant number of neutrophils was detected in the blood on day 6, as compared to mice that were treated with CPM only or with G-CSF or 4F-benzoyl-TN14003 alone (FIG. 12).

| Molecule | production of GR-1 and Ter119 positive cells and progenitors ([1]; stromal cells (14F1.1) seeded with BM cells, 4F-benzoyl-TN14003 10 microgram/ml, G-CSF 100 ng/ml, 4 days) | Activated macrophages, fold elevation of cell counts from control (white-blood-cells (WBC)) | MNC, fold elevation of cell counts from control (white-blood-cells (WBC)) | Neutrophils, fold elevation of cell counts from control (white-blood-cells (WBC)) | Neutrophils, fold elevation of cell counts from control (white-blood-cells (WBC); listed as AMD31000) | Total WBC, fold elevation of cell counts from control (white-blood-cells (WBC); listed as AMD31000) | survival of lethally irradiated recipient mice ([2]; cells from 225 microliter of blood of donors given 5 mg/kg, day 33 post transplantation) | survival of lethally irradiated recipient mice ([2]; cells from 900 microliter of blood of donors given 5 mg/kg, day 11 post transplantation) | BFU-E in blood, fold elevation of cell counts from control [3] | CFU-GEMM in blood, fold elevation of cell counts from control [3] | Progenitors in blood, fold elevation of cell counts from control [3] | BFU-E in blood, fold elevation of cell counts from control ([3]; listed as AMD31000) | MIP3α secretion (PC3-CXCR4.5 cells; PC3-CXCR4.5 cells, ELISA) | CXCR4 dependence of induced MIP3α secretion (PC3-CXCR4.5 cells; transfection with CXCR4-specific or control siRNA) | MIP3α secretion (PC3 cells) | differentiation and proliferation of BM cells on stromal cells (micrographs) ([1]; representative experiment, FIG. 17E) | GR-1 positive cells in the blood (flow cytometry) [4] | number of neutrophils in blood as % of the initial number in normal (untreated) mice (neutrophils; day 6) | number of neutrophils in blood as % of the initial number (neutrophils; day 7) | Total WBC, fold elevation of cell counts from control (white-blood-cells (WBC)) |
| --- | --- | --- | --- | --- | --- | --- | --- | --- | --- | --- | --- | --- | --- | --- | --- | --- | --- | --- | --- | --- |
| c1cc(CN2CCCNCCNCCCNCC2)ccc1CN1CCCNCCNCCCNCC1 [AMD3100, reference compound] | did not demonstrate this effect | 6.1 fold | 3.4 fold | 8 fold | 8.0 fold | 2.9 fold | 37.5% | 73% | ~30 fold | 15.5 fold | 4.2 fold | 35 fold | – | – | – | – | – | – | – | – |
| CXCL12: chemokine, CXCR4's only natural ligand | – | – | – | – | – | – | – | – | – | – | – | – | increased the secretion of MIP3α | CXCR4 dependent | increased the secretion of MIP3α | – | – | – | – | – |
| G-CSF: Granulocyte colony-stimulating factor (G-CSF) (Filgrastim Neupogen) (protein, UniProt P09919 31-207, looked up, N-terminal methionine) Granulocyte …: TPLGPASSLPQSFLLKCLEQVRKIQGDGAALQEKLVSECATYKLCHPEELVLLGHSLGIPWAPLSSCPSQALQLAGCLSQLHSGLFLYQGLLQALEGISPELGPTLDTLQLDVADFATTIWQQMEELGMAPALQPTQGAMPAFASAFQRRAGGVLVASHLQSFLEVSYRVLRHLAQP | – | 1.4 fold | 1.4 fold | – | – | – | – | – | 142 fold | 151 fold | 13.6 fold | – | – | – | – | differentiating and proliferating | mobilize GR-1 positive cells and reduce neutropenia | only a mild effect | not sufficient to elevate neutrophil counts to their normal level | 1.9 fold |
